Data reported in article PMC5761851, “Application of a phenotypic drug discovery strategy to identify biological and chemical starting points for inhibition of TSLP production in lung epithelial cells” (PLoS ONE, 2018).

Tests used:
Assay in all cases: kinase selectivity panel
Type in all cases: biochemical
[1] = biological target: T1, Flt3 (Homo sapiens, UniProt P36888); conditions: read-out: percentage of control activity (POC), Flt3
T1 construct: purchased Eurofins Pharma Discovery Services (KinaseProfiler; Cerep BioPrint panel)
T1 sequence (P36888 27-993): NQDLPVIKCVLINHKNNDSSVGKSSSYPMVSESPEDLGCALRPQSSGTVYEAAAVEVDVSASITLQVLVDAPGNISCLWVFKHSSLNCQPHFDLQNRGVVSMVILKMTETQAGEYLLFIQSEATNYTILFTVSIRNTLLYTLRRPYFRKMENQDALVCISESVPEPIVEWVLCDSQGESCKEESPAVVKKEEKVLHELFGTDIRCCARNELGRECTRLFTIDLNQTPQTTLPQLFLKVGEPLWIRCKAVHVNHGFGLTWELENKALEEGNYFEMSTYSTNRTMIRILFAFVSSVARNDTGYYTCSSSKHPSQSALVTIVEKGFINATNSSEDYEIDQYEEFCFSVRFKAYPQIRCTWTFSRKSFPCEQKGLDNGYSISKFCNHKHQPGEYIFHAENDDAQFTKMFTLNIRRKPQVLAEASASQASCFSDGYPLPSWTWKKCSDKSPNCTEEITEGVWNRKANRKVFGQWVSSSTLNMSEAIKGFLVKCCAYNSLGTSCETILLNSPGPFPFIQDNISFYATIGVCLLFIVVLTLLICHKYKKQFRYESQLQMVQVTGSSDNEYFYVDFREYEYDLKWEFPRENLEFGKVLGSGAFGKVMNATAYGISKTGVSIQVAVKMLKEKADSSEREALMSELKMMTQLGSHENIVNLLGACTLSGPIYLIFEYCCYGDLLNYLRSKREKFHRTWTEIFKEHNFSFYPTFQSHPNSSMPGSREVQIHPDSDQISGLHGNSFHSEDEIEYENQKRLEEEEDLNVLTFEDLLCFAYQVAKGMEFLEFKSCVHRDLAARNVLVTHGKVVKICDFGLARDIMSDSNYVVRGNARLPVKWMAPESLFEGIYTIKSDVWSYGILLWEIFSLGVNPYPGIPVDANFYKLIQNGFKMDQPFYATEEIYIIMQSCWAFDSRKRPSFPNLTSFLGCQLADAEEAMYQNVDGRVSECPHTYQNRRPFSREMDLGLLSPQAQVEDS
Procedure, shortened: (§1)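 The compound is screened at 10 μM in duplicate against 125 representative kinases. Selected activities are followed up with a nine-concentration duplicate titration to give IC50.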

[2] = biological target: T2, Flt4 (Homo sapiens, UniProt P35916); conditions: for remaining activity at 10 µM: read-out: percentage of control activity (POC), Flt4
T2 construct: Eurofins Pharma Discovery Services (contract assay service)
T2 sequence (P35916 25-1363, species assumed): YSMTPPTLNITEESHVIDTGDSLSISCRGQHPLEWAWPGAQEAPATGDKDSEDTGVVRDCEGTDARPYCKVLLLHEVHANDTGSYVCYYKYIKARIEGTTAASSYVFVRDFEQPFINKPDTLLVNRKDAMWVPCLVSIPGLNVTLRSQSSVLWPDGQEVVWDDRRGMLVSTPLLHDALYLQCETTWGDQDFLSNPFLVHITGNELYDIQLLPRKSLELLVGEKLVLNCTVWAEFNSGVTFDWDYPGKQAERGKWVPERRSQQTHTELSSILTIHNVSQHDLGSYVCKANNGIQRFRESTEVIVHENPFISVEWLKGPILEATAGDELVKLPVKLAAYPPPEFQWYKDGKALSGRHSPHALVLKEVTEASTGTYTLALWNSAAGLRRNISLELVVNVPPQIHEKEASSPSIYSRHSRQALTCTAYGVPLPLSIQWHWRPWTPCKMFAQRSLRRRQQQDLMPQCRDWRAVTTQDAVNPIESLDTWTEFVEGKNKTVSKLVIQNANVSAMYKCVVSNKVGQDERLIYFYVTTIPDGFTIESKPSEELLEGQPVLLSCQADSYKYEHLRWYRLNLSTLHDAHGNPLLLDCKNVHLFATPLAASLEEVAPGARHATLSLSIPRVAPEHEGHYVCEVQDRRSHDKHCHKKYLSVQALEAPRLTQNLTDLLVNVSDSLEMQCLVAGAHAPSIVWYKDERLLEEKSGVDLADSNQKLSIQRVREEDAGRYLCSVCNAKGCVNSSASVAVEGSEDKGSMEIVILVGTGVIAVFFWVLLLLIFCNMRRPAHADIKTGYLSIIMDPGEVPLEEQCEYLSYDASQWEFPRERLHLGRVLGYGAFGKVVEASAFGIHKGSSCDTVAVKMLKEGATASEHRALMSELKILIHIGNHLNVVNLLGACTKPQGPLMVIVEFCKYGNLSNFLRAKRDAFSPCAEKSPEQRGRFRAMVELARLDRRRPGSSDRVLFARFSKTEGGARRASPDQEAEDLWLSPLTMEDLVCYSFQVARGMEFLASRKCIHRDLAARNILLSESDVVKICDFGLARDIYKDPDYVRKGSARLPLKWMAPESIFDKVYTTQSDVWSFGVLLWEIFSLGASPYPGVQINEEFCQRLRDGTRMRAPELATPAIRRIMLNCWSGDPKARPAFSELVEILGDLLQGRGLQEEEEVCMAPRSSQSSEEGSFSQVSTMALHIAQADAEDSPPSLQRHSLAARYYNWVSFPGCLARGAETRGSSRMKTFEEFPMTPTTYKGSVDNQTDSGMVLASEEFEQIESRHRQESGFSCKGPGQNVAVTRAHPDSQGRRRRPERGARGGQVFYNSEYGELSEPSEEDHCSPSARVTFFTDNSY
Procedure, shortened: as §1

[3] = biological target: T3, MKK7β (Homo sapiens, UniProt O14733); conditions: read-out: percentage of control activity (POC), MKK7β
T3 construct: purchased Eurofins Pharma Discovery Services (KinaseProfiler; Cerep BioPrint panel)
T3 sequence (O14733 1-419): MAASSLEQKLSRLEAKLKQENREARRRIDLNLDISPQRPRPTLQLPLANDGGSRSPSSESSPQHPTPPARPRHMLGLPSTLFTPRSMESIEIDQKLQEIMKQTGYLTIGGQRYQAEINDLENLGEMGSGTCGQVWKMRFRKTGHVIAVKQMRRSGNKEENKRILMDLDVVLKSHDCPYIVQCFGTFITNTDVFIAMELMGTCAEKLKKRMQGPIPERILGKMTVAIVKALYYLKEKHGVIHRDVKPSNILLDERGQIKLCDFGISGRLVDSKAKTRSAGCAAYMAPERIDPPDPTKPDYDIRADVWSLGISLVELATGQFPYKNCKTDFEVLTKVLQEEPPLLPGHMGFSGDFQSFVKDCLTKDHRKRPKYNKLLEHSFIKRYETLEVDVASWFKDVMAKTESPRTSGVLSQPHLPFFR
Procedure, shortened: as §1

[4] = biological target: T4, Mer (Homo sapiens, UniProt Q12866); conditions: read-out: percentage of control activity (POC), Mer
T4 construct: purchased Eurofins Pharma Discovery Services (KinaseProfiler; Cerep BioPrint panel)
T4 sequence (Q12866 21-999): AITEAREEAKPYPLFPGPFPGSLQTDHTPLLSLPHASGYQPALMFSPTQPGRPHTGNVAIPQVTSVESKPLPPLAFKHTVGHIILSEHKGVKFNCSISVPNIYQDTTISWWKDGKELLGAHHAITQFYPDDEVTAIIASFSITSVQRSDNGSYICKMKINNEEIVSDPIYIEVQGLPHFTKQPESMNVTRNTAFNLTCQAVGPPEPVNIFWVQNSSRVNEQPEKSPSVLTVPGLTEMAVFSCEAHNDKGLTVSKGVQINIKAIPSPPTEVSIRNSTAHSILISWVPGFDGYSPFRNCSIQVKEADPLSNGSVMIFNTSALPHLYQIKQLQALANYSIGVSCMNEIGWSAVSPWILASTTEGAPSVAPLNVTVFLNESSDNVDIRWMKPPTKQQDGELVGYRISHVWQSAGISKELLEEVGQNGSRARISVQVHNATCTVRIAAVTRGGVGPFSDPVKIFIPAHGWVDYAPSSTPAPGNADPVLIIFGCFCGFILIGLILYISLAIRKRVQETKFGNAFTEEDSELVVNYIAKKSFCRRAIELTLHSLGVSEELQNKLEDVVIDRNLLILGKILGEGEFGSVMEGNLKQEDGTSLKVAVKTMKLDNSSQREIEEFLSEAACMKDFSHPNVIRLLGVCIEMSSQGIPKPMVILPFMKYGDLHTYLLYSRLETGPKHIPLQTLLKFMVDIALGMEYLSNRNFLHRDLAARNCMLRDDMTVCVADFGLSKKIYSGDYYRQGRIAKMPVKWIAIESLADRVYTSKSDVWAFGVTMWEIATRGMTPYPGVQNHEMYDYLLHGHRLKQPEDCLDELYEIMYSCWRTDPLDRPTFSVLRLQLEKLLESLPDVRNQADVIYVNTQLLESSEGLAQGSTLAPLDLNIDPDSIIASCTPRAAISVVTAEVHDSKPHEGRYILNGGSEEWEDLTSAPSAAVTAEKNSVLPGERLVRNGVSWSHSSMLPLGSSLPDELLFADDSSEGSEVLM
Procedure, shortened: as §1

[5] = biological target: T5, PKCθ (Homo sapiens, UniProt Q04759); conditions: read-out: percentage of control activity (POC), PKCθ
T5 construct: purchased Eurofins Pharma Discovery Services (KinaseProfiler; Cerep BioPrint panel)
T5 sequence (Q04759 whole entry): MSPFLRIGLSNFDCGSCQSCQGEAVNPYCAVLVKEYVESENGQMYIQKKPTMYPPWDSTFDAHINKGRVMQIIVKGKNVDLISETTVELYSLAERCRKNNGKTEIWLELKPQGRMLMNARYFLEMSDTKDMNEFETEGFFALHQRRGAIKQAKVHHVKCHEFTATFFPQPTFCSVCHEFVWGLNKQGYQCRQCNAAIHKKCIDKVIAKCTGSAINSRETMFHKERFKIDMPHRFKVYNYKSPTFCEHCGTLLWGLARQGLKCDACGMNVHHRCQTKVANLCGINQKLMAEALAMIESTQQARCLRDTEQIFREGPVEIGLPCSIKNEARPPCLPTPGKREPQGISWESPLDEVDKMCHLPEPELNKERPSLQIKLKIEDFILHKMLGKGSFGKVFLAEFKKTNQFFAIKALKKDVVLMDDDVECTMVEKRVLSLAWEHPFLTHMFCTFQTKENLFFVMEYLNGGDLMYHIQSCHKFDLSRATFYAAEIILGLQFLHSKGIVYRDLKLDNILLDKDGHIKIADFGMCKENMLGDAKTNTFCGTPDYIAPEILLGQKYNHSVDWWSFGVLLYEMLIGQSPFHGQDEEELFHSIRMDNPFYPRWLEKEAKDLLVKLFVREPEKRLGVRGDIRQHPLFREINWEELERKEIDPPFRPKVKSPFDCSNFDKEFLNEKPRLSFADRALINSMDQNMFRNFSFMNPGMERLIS
Procedure, shortened: as §1

[6] = biological target: T6, p70S6K (Homo sapiens, UniProt P23443); conditions: read-out: percentage of control activity (POC), p70S6K
T6 construct: purchased Eurofins Pharma Discovery Services (KinaseProfiler; Cerep BioPrint panel)
T6 sequence (P23443 whole entry): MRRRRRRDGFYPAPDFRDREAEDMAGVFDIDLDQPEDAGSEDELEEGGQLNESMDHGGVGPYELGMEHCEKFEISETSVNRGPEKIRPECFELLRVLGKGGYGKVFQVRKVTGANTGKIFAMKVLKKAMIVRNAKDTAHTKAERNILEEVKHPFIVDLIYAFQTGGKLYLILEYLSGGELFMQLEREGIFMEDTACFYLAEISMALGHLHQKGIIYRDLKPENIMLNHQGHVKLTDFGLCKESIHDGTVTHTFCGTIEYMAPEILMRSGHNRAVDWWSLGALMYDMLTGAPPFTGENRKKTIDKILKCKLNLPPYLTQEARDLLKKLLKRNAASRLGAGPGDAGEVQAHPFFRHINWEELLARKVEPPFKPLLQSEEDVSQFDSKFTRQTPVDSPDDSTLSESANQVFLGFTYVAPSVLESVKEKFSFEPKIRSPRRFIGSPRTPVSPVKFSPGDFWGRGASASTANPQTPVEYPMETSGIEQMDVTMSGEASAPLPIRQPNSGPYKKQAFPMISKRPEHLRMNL
Procedure, shortened: as §1

| Compound | remaining activity at 10 µM [1] | remaining activity at 10 µM ([2]; 10 μM) | remaining activity at 10 µM [3] | remaining activity at 10 µM [4] | remaining activity at 10 µM [5] | remaining activity at 10 µM [6] | inhibition at 10 µM ([2]; 10 μM, read-out: inhibition of Ftl4) | IC50 ([2]; biochemical dose response, duplicate, read-out: Inhibition of indicated activity (IC50, μM): Ftl4) |
| --- | --- | --- | --- | --- | --- | --- | --- | --- |
| Cn1cc(-c2cccc(-c3nc(C(=O)NC4C5CC6CC4CC(O)(C6)C5)c(N)nc3N)c2)cn1 (centres unmarked) [compound 4] | 95% | 20% | 101% | 74% | 84% | 92% | 80% | 3.13 µM |
| CS(=O)(=O)N1CCN(c2ccc(Nc3ncc(C(N)=O)c(NC4CC4)n3)cc2)CC1 [compound 5] | 1% | 0% | 7% | 1% | 26% | 54% |  |  |

Now from value to molecule, other results behind:

| remaining activity at 10 µM [1] | remaining activity at 10 µM ([2]; 10 μM) | remaining activity at 10 µM [3] | remaining activity at 10 µM [4] | remaining activity at 10 µM [5] | remaining activity at 10 µM [6] | Compound | inhibition at 10 µM ([2]; 10 μM, read-out: inhibition of Ftl4) | IC50 ([2]; biochemical dose response, duplicate, read-out: Inhibition of indicated activity (IC50, μM): Ftl4) |
| --- | --- | --- | --- | --- | --- | --- | --- | --- |
| 104% | 108% | 110% | 95% | 91% | 104% | CC(C)(C)N1CCC(c2cc(-c3ccc(F)cc3Cl)c3cc[n+]([O-])c(-c4c(Cl)cccc4Cl)c3n2)CC1 [compound 2] |  |  |
| 110% | 78% | 116% | 96% | 97% | 95% | Cc1ccc(C(=O)NCC2CC2)cc1-c1ccc2c(c1)NC(=O)C21CCCC1 [compound 3] |  |  |
| 110% | 88% | 112% | 100% | 98% | 102% | COc1c(NC(=O)c2ccc(C)c(-c3nnc4c(NCC(C)(C)C)nccn34)c2)cc(C(C)(C)C)cc1NS(C)(=O)=O [compound 7, reference compound] |  |  |
